Experimental data reported in paper PMC11436104 (Toxins, 2024).
*1 amine or outer side, *2 acyl side, *3 side chain or, on linkers, in order; H or OH if unused. Where a SMILES comes first, the peptide text is derived from it. Bridges are numbered along the chain shown (N, C = ends). [ ]: non-standard residue; d: D form. Adda = CO[C@@H](Cc1ccccc1)[C@@H](C)/C=C(C)/C=C/[C@H](N[*:1])[C@H](C)C(=O)[*:2]; dAsp(3S-Me) = C[C@H](C(=O)[*:3])[C@@H](N[*:1])C(=O)[*:2]; d(γGlu) = O=C(O)[C@@H](CCC(=O)[*:2])N[*:1]; NMeDha = C=C(NC)C(=O)O

System: U87-MG cells
Assay: MTT metabolic activity / cell viability
Assay type: cell-based, human
Method: Normal human astrocytes (NHAs; Lonza, Walkersville, MD, USA) were grown and maintained in monolayer cultures in Dulbecco’s modified Eagle’s medium (DMEM; Sigma) supplemented with 10% fetal bovine serum (Euroclone, Pero, MI, Italy), 1% penicillin/streptomycin (Euroclone), 2 mM L-glutamine (Euroclone), and 20 mM Hepes (Invitrogen, Carlsbad, CA, USA). The U87-MG human glioblastoma cells (U87-MG cells; American Type Culture Collection, Manassas, VA, USA) were grown and maintained in monolayer cultures in DMEM supplemented with 10% fetal bovine serum, 1% penicillin/streptomycin, 4 mM L-glutamine, and 1% non-essential amino acids (Sigma).
Cell viability was determined using the 3-(4,5-dimethylthiazolyl-2)-2,5-diphenyltetrazolium bromide (MTT) assay, as according to Mosmann. This assay measures the conversion of MTT to its insoluble formazan by the dehydrogenase enzymes of the intact mitochondria of living cells. […]; Nunclon; Nunc, Naperville, IL, USA) and incubated for 16 h at 37 °C for attachment. […] The amount of formazan, which is proportional to the metabolic activity of cells, was quantified spectrophotometrically at 570 nm (reference filter wavelength, 690 nm) using a microplate reader (Synergy MX; BioTek, Winooski, VT, USA). The metabolic activity of the cells was determined by comparing the optical densities of the CCP-treated cells with those of the negative control. […]

## C=C1C(=O)N[C@H](C)C(=O)N[C@@H](CC(C)C)C(=O)N[C@@H](C(=O)O)[C@H](C)C(=O)N[C@@H](CCCNC(=N)N)C(=O)N[C@@H](/C=C/C(C)=C/[C@H](C)[C@H](Cc2ccccc2)OC)[C@H](C)C(=O)N[C@@H](C(=O)O)CCC(=O)N1C [MC-LR, Microcystin-LR, reference compound] (R[Adda][d(γGlu)][NMeDha][dA]L[dAsp(3S-Me)]-OH; lactam N-7)
  mean decrease in viability: 15%
  viability vs control: not significantly changed
